Results reported in patent US20180153826A1, “MATERIALS AND METHODS FOR THE TREATMENT OF CYSTIC FIBROSIS” (UNIVERSITY OF FLORIDA RESEARCH FOUNDATION, INC., priority 2015, published 2018).

Experiments:
SCFA/HCO3^− exchange = SCFA/HCO3^− exchange activity (isobutyrate-dependent HCO3^− secretion); design: species or system rat; settings: 10 μM serosa; 25 mM isobutyrate lumen
Procedure: Stripped mucosal sheets were mounted into Ussing chambers (window area=0.3-0.5 cm^2, Physiologic Instruments, San Diego, Calif.). The mucosal side of tissue was bathed with an unbuffered HCO3^−-free Cl^− Ringer solution (see Table 2 for detailed composition) circulated by a gas lift with 100% O2 while the serosal side was bathed with buffered Cl^− Ringer solution (pH 7.4) that contained 25 mM HCO3^− and gassed with 5% CO2/95% O2. Each side contained 3-5 ml of solution and the temperature of the solution was adjusted to and maintained at 37° C. by heated water-jacketed reservoirs. […]
(§1) Two types of approaches were used in the measurement of colonic HCO3^− secretion, namely, measurement of lumen pH or pH stat titration of net alkalinization by colonic mucosa. […] The amount of the acid delivered per unit time per surface area was used to quantitate HCO3^− secretion by the mucosa. Measurements were recorded continuously and mean values for consecutive 5 or 10 min periods were averaged. The rate of HCO3^− secretion (JHCO3) is expressed as μEq/hr/cm^2. The short-circuit current (Isc) was measured in microamperes (μA) and converted into μEq/hr/cm^2. Tissue resistance (R, Ω cm^2) was calculated from Ohm's law.
SCFA/HCO3^− exchange activity was calculated as ΔJHCO3 (the difference between JHCO3 in the presence minus absence of luminal isobutyrate).

[1] = system: cAMP-dependent HCO3^− secretion; assay: Cyclic nucleotide (cAMP)-dependent HCO3^− secretion, lumen Cl^−/SCFA-free; design: species or system rat
Procedure: Stripped mucosal sheets were mounted into Ussing chambers (window area=0.3-0.5 cm^2, Physiologic Instruments, San Diego, Calif.). The mucosal side of tissue was bathed with an unbuffered HCO3^--free Cl^- Ringer solution (see Table 2 for detailed composition) circulated by a gas lift with 100% O2 while the serosal side was bathed with buffered Cl^- Ringer solution (pH 7.4) that contained 25 mM HCO3^- and gassed with 5% CO2/95% O2. Each side contained 3-5 ml of solution and the temperature of the solution was adjusted to and maintained at 37° C. by heated water-jacketed reservoirs. Experiments were performed under short-circuit conditions (Voltage-Current Clamp, VCC MC8; Physiologic Instruments, San Diego, Calif.) to maintain the transepithelial potentials at 0 mV, except for brief interruption at 20-second intervals for recording of open-circuit potential (VT, mV). Two types of approaches were used in the measurement of colonic HCO3^- secretion, namely, measurement of lumen pH or pH stat titration of net alkalinization by colonic mucosa. […] Radiometer Analytical, Villeurbanne, France). The amount of the acid delivered per unit time per surface area was used to quantitate HCO3^- secretion by the mucosa. Measurements were recorded continuously and mean values for consecutive 5 or 10 min periods were averaged. […] The short-circuit current (Isc) was measured in microamperes (μA) and converted into μEq/hr/cm^2. Tissue resistance (R, Ω cm^2) was calculated from Ohm's law. Colon segments were prepared and treated as in the secretagogue-induced HCO3^- secretion experiments except that they were bathed luminally with HCO3^--free Ringer solution that contained no isobutyrate and no Cl^-. Cyclic nucleotide-dependent HCO3^- secretion was calculated as […] (the difference between JHCO3 after minus JHCO3 before the addition of forskolin). When inhibitor was used, it was added at 30 min before […] or forskolin.

[2] = system: HCO3^− secretion by colonic mucosa; assay: Basal HCO3^− secretion (pH stat JHCO3 and Isc, Ussing chamber); design: species or system rat
Procedure: Experiments were performed using non-fasting male Sprague-Dawley rats and C57BL/6 mice. Rats weighting 100-400 g were obtained from Charles River Laboratories. Mice lacking CaSR expression in intestinal epithelial cells (CaSR^−/−) and their CaSR^+/+ littermates were bred and maintained. CaSR^−/− mice were generated as previously described. Briefly, CaSR flox/flox mice were bred with transgenic mice expressing Cre Recombinase under the control of the villin 1 promoter and genotyped prior to all experiments after an approximate 10-12 generations. Mice were used at 5-10 weeks of age. Animals were fed and maintained on regular chow (Harlan) with free access to water before sacrifice. Animals were sacrificed with standard CO2 inhalation followed by cervical dislocation. The colons were isolated, cut open along the mesenteric border into a flat sheet, and flushed with ice-cold Ringer solutions. […]
as §1
Two adjacent sheets of mucosa from each colon were mounted into two Ussing chambers and bathed luminally with HCO3^−-free Cl^− Ringer solution and serosally with HCO3^−-containing Cl^− Ringer solution. After 15 to 30 min, when Isc and JHCO3 had stabilized, the CaSR agonist, R568 was added to the serosal or mucosal side of tissue, and changes in Isc and JHCO3 during the 15-30 min period ensuing after the addition of the agonist were determined.

[3] = system: CFTR-mediated and non CFTR-mediated HCO3^− secretion; assay: Isc and pH stat HCO3^− secretion with/without lumen Cl^−, CFTR inhibitors or DIDS (FIGS. 5, 6)
Source text: FIG. 3. Experimental approach 1: The Ussing chamber pH-stat set up used to monitor and measure HCO3^- secretion by colonic mucosa. FIG. 4. Experimental Approach 2: Measurement of HCO3^- secretion by colonic mucosa in the presence of apical NPPB/Glibenclamide. FIGS. 5A-5F. Activation of CaSR by […] inhibits CFTR-mediated HCO3^- secretion (JHCO3) and ISC but stimulates non CFTR-mediated HCO3^- secretion (JHCO3) and Isc. Physiological approach assayed with, versus without, lumen Cl^-. FIGS. 6A-6F. Activation of CaSR by […] inhibits CFTR-mediated HCO3^- secretion (JHCO3) and ISC but stimulates CFTR-independent HCO3^- secretion (JHCO3) and Isc. Pharmacological approach assayed with, and without, CFTR transporter inhibitors or AE inhibitor DIDS.

COc1cccc([C@@H](C)NCCCc2ccccc2Cl)c1.Cl [R568, 2-Chloro-N-[(1R)-1-(3-methoxyphenyl)ethyl]-benzenepropanamine hydrochloride]
isobutyrate-dependent HCO3^− secretion (SCFA/HCO3^− exchange): significantly stimulated | effect on FSK-induced HCO3^− secretion ([1]; 10 μM serosa after forskolin, lumen Cl^−/SCFA-free): almost completely reversed | Isc response in the absence of serosal HCO3^− ([1]; no serosal HCO3^− (data not shown)): failed to stimulate or to inhibit | effect on forskolin-stimulated Isc ([1]; subsequent addition after forskolin, lumen Cl^−-free): inhibited | basal JHCO3 response ([2]; 10 μM, added to serosa): significantly stimulated | Isc in presence of R568 ([2]; basal, absence 1.36±0.40, n=5, p>0.05): 1.48±0.44 μEq/hr/cm^2 | effects of R568 compared with reduced Ca^2+o ([2]; under normal Ca^2+o condition): qualitatively similar, albeit with a slightly less pronounced effect | HCO3^− secretion (pH stat) ([3]; absence of lumen Cl^−): net inhibition | phase I Isc stimulation induced by R568 ([3]; absence of lumen Cl^−): abolished | phase II Isc inhibition ([3]; absence of lumen Cl^−): remained unchanged or slightly reduced | HCO3^− secretion (pH stat) ([3]; presence of lumen Cl^−): net stimulation | Isc response ([3]; presence of lumen Cl^−): two-phase response
